From US20250381110A1, “SKIN CARE COMPOSITION AND METHOD OF USING THE SAME” (THE PROCTER & GAMBLE COMPANY, priority 2024, published 2025)
Where a name gives a salt, the structure may show the parent alone. Read-outs that look alike come from different tables or passages of the source.

What was measured:
[1] = system: primary human dermal fibroblasts (HDFs); experiment: Mitophagy assay, Su9-Halo-GFP reporter, fluorescence microscopy; type: cell-based
Procedure: (§1) FIGS. 15A-15C show hydroxycinnamic acids (HCAs) tested in mitophagy assays in primary HDFs. […] 80,000 mixed aged Fibroblasts expressing the Su9-Halo-GFP reporter were treated for 48 h with the indicated HCAs. A change in the reporter excitation occurs because the GFP tag is quenched in the lysosome environment, indicating mitophagy.
Primary human dermal fibroblasts (HDFs) were cultured in DMEM supplemented with 10 percent FBS, 100 units per milliliter penicillin/streptomycin, and 2 millimolar L-glutamine in a humidified atmosphere containing 5 percent carbon dioxide at 37 degrees Celsius. Stable expression of mt-mKeima was achieved through retroviral transduction (Kelly et al.). Cells stably expressing mt-mKeima were seeded in a 35 mm glass bottom dish (MatTek). The live-cell mt-Keima signal was obtained via widefield microscopy using the DMi8 and 2 filtersets to obtain the acidic (561 nm excitation, “red”) and pH-neutral (480 nm, “green”) mKeima signals. Using FIJI/ImageJ, a macro was applied to the mt-mKeima signal to extract mitolysosomes. […] Mitophagy events were determined as the number of puncta per cell. […] Fluorescence images were obtained using an LSM700 confocal microscope (Zeiss). The number of mitolysosomes (GFP-Halo+puncta) per cell was quantified using proprietary plugin in Fiji/ImageJ. […]

p62-dependent mitophagy [2] = experiment: Luciferase-p62 clearance assay, stated for HDFs; type: cell-based, human; settings: 5 μM; HDFs
Procedure: as §1
To identify p62-dependent materials which increase mitophagy, a Luciferase-p62 Assay was established. This method provides an approach to measure the ability of a material to modulate p62-dependent mitophagy by using an inducible firefly luciferase-p62 (Fluc-p62) reporter cell system. In this assay, p62 levels are driven by doxycycline treatment. After levels increased, expression of Fluc-p62 is turned off by removal of doxycycline, materials are then added and assessed for how they affect clearance of Fluc-p62 protein, which is proportionate to cellular mitophagy rates (Kelly et al.). […]
Test materials including bioactive materials were screened in mouse embryonic fibroblasts (MEFs, Harada et al.) expressing the TET-inducible p62-fluc construct as previously described (Brown et al.). […] Subsequently, cells were treated with test materials for 48 hours in normal growth medium and analysed using ONE-Glo™+Tox Luciferase Reporter and Cell Viability Assay (Promega) by following the manufacturer's protocol.

p62-dependent mitophagy [3] = experiment: Luciferase-p62 assay (Fluc-p62 clearance) in mouse embryonic fibroblasts; type: cell-based
Procedure, shortened: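 MEFs with doxycycline-inducible Fluc-p62; after induction, doxycycline removed and cells treated 48 h with compounds at 10 μM. Fluc-p62 clearance, taken as mitophagy, read by ONE-Glo+Tox luciferase with viability. Vehicle (DMSO) as negative control; activity also expressed relative to rapamycin.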

[4] = Luciferase-p62 assay, mouse embryonic fibroblasts (MEFs), compounds at 10 μM
[5] = percentage of Luciferase-p62 clearance relative to baseline (mean luminescence in the absence of doxycycline induction), MEFs, 10 μM
[6] = percentage of activity relative to rapamycin tested in the same experiment at the same concentration, MEFs, 10 μM

Row | Compound | Mean Luminescence (p62-dependent mitophagy [3]; [4]) | % Activity over baseline (p62-dependent mitophagy [3]; [5]) [%] | % Activity relative to Rapamycin (p62-dependent mitophagy [3]; [6]) [%] | other results
1 | O=C(O)/C=C/c1ccc(O)cc1 [p-coumaric acid] |  |  |  | mitophagy events by fluorescence microscopy ([1]; 8 μM, 48 h, mixed aged fibroblasts, Su9-Halo-GFP reporter): increases mitophagy events; increase of basal mitophagy levels, dose-response comparison with ferulic acid ([1]; 0.1-8 μM, HDFs): outperforms an O-methylated form (ferulic acid); p62-dependent mitophagy vs. untreated control cells (p62-dependent mitophagy [2]): significantly increases p62-dependent mitophagy
2 | O=C1O[C@H]2[C@@H]3OC(=O)c4cc(O)c(O)c(O)c4-c4c(O)c(O)c5oc(=O)c6c(c(O)c(O)c7oc(=O)c4c5c76)-c4c(cc(O)c(O)c4O)C(=O)OC[C@H]3OC(O)[C@@H]2OC(=O)c2cc(O)c(O)c(O)c2-c2c1cc(O)c(O)c2O (mixture of isomers) [Punicalagin] | 782.52 | 51.64 | 93.04 | 
3 | C=C1CCC2C(C=C(C)C(=O)C3(OC(C)=O)CC(C)C(OC(=O)c4ccccc4)C3C1OC(C)=O)C2(C)C (stereo not shown) [5,15-Diacetyl-3-benzoyllathyrol] | 927.14 | 42.70 | 76.94 | 
4 | COc1cc(NS(=O)(=O)c2ccc(N)cc2)nc(OC)n1 [Sulfadimethoxine] | 821.82 | 49.21 | 88.67 | 
5 | CC(=O)c1cc(O)ccc1O [2′,5′-Dihydroxyacetophenone] | 709.63 | 56.14 | 101.16 | 
6 | O=c1ccc2ccc3occc3c2o1 [Angelicin] | 910.28 | 43.74 | 78.82 | 
7 | C=C1CC[C@H](O)C/C1=C/C=C1\CCC[C@]2(C)[C@@H]([C@H](C)CCCC(C)C)CC[C@@H]12 [Vitamin D3] | 488.16 | 69.83 | 125.82 | 
8 | CC1(C)[C@@H](OC(=O)CCC(=O)O)CC[C@]2(C)[C@H]3C(=O)C=C4[C@@H]5C[C@@](C)(C(=O)O)CC[C@]5(C)CC[C@@]4(C)[C@]3(C)CC[C@@H]12 [Carbenoxolone disodium] | 856.44 | 47.07 | 84.81 | 
9 | C[C@]12CCC(=O)C=C1CC[C@@H]1[C@@H]2[C@@H](O)C[C@@]2(C)[C@H]1CC[C@]2(O)C(=O)COC(=O)CCC(=O)[O-].[Na+] | 927.92 | 42.65 | 76.85 | 
10 | C=C(C)[C@H]1CC=C(C)C(=O)C1 [(S)-(+)-Carvone] | 802.50 | 50.40 | 90.82 | 
11 | NCCCNCCCCNCCCN [Spermine] | 720.40 | 55.48 | 99.96 | 
12 | Tubeimoside I | 257.38 | 84.09 | 151.52 | 
13 | Cl.Cl.NCCCCN [1,4-Diaminobutane dihydrochloride] |  |  |  | Mean Luminescence (p62-dependent mitophagy [3]): 902.42; % Activity over baseline (p62-dependent mitophagy [3]; 10 µM): 44.23%; % Activity relative to Rapamycin (p62-dependent mitophagy [3]; 10 µM): 79.69%
14 | CC(=O)NCCc1c[nH]c2ccc(O)cc12 [N-Acetylserotonin] | 978.08 | 39.55 | 71.27 | 
15 | O=C(O)Cc1cccc(O)c1 [3-Hydroxyphenylacetic acid] | 888.33 | 45.10 | 81.26 | 
16 | O=C1C[C@@H](c2ccc(O)c(O)c2)Oc2cc(O)cc(O)c21 [Eriodictyol] | 852.50 | 47.31 | 85.25 | 
17 | N[C@@H](Cc1cc(I)c(Oc2cc(I)c(O)c(I)c2)c(I)c1)C(=O)O [Levothyroxine sodium] | 974.14 | 39.80 | 71.71 | 
18 | CCCCC(=O)O[C@H]1CC[C@H]2[C@@H]3CCc4cc(O)ccc4[C@H]3CC[C@]12C [Estradiol valerate] | 924.65 | 42.86 | 77.22 | 
19 | OC[C@@H](O)[C@@H](O)CO [Erythritol] | 696.09 | 56.98 | 102.67 | 
20 | CO[C@]12C[C@@H](COC(=O)c3cncc(Br)c3)CN(C)[C@@H]1Cc1cn(C)c3cccc2c13 [Nicergoline] | 764.49 | 52.75 | 95.05 | 
21 | CN[C@@H]1[C@H](O)[C@H](NC)[C@H]2O[C@@]3(O)C(=O)C[C@@H](C)O[C@H]3O[C@@H]2[C@H]1O [Spectinomycin dihydrochloride] | 953.21 | 41.09 | 74.04 | 
22 | Schisantherin A | 875.42 | 45.90 | 82.70 | 
23 | Nc1ncnc2c1ncn2[C@@H]1O[C@H](COP(=O)(O)OP(=O)(O)OP(=O)(O)O)[C@@H](O)[C@H]1O [ATP] | 875.39 | 45.90 | 82.70 | 
24 | C[C@@H]1CC[C@H]2[C@@H](C)C(=O)O[C@@H]3O[C@@]4(C)CC[C@@H]1[C@]32OO4 [Artemisinine] |  | 39.29 |  | 
25 | CO/N=C(\C(=O)N[C@@H]1C(=O)N2C(C(=O)O)=C(CSC(=O)c3ccco3)CS[C@H]12)c1csc(N)n1 [Ceftiofur HCl] | 781.02 | 51.73 | 93.21 | 
26 | C[C@]12CCC(=O)C=C1CC[C@@H]1[C@@H]2[C@@H](O)C[C@@]2(C)[C@H]1CC[C@]2(O)C(=O)CO [Hydrocortisone] | 801.04 | 50.50 | 90.98 | 
27 | CN(CC(=O)O)C(=N)N.O [Creatine monohydrate] | 901.68 | 44.28 | 79.77 | 
28 | O=C1CC[C@H](C(=O)O)N1 [D-Pyroglutamic acid] | 938.93 | 41.97 | 75.63 | 
29 | C[C@@H]1C(=O)O[C@H]2C[C@@]34[C@H]5C[C@@H](C(C)(C)C)[C@]36[C@@H](OC(=O)[C@@H]6O)O[C@@]4(C(=O)O5)[C@]21O [Ginkgolide A] | 977.84 | 39.57 | 71.29 | 
